Key:
Type in all cases: cell-based, human
cdc25c = assay: Protein expression, Western blot in MCF-7 cells; details: 24 h (FIG. 4B)
Procedure: (§1) In FIG. 4A, MCF-7 cells were exposed to 1 μM concentration of the indicated compounds for 6 hours. Western blots were probed with antibodies specific for the proteins indicated. Numbers below each lane show densitometry readings for each lane as compared to control. In FIG. 4B, MCF-7 cells were exposed to the indicated concentration of compound 28 and incubated for 24 hours. Western blots were probed with antibodies specific for the proteins indicated.
(§2) To determine the disclosed compounds effect on protein expression in human breast cancer cells, cultured MCF-7 cells were exposed to various concentrations of the test compounds for 6 h (FIG. 4A) or 24 h (FIG. 4B). Cell lysates were fractionated with identical amounts of protein by SDS-PAGE and transferred to Bio-Rad trans-Blot nitrocellulose membranes (Bio-Rad Laboratories, Hercules, Calif.). The nitrocellulose membrane was incubated in blocking buffer (Tris-buffered saline containing 0.1% Tween 20 and 5% nonfat milk) for 1 h at room temperature, then with the appropriate primary antibody overnight at 4° C. or 2 h at room temperature with gentle shaking. Finally, the membrane was washed three times with the washing buffer (Tris-buffered saline containing 0.1% Tween 20) for 15 min, incubated with goat anti mouse/rabbit IgG-horseradish peroxidase-conjugated antibody (Bio-Rad) for 1 h at room temperature, and washed again (in triplicate). The protein of interest was detected by enhanced chemiluminescence reagents from PerkinElmer LAS, Inc (Boston, Mass.).

cleaved PARP = assay: Protein expression, Western blot in MCF-7 cells; details: 24 h (FIG. 4B)
Procedure: as §1, §2

cdc2 = assay: Protein expression, Western blot in MCF-7 cells; details: 24 h (FIG. 4B)
Procedure: as §1, §2

E2F1 = assay: Protein expression, Western blot in MCF-7 cells; details: 24 h (FIG. 4B)
Procedure: as §1, §2

MCF7 = assay: Cell cycle progression (propidium iodide, flow cytometry); details: 48 hr; for G1 / G2/M / S: MCF7
Procedure: (§3) To determination of the effects of the disclosed compounds on the cell cycle, 2-3×10^5 cells were exposed to the test compounds (0-5 μM) and incubated for 48 hr prior to analysis (Table 6). Cells were trypsinized, washed with PBS and fixed in 1.5 mL 95% ethanol at 4° C. overnight, followed by incubation with RNAse and staining with propidium iodide (Sigma). The DNA content was determined by flow cytometry.

HCT116 = assay: as above; details: 48 hr; for G1 / G2/M / S: HCT116
Procedure: as §3

HCT-116 p53 −/− = assay: as above; details: 48 hr; for G1 / G2/M / S: HCT-116 p53 −/−
Procedure: as §3

For `O=C(O)C(F)(F)F.O=C1C(NCc2ccc(F)cc2)=CC2=NCCc3c[nH]c1c32` [Compound 28], the “expression level of cdc25c” value (cdc25c) was “decreased”, the “expression of cleaved PARP” value (cleaved PARP) was “increased expression” and the “expression level of cdc2” value (cdc2) was “decreased”. For the same molecule, the “expression level of E2F1” value (E2F1) was “decreased”, the G1 (MCF7; 0.1 μM) was 75.10 and the G2/M (MCF7; 0.1 μM) was 17.53. It also gave an S (MCF7; 0.1 μM) of 7.37, a G1 (MCF7; 0.5 μM) of 51.97 and a G2/M (MCF7; 0.5 μM) of 20.17. For the same molecule, the S (MCF7; 0.5 μM) was 27.86, the G1 (MCF7; 1 μM) was 53.96 and the G2/M (MCF7; 1 μM) was 16.21. The S (MCF7; 1 μM) was 29.82, the cell cycle arrest (MCF7; breast cancer (MCF-7), dose-dependent, 0-5 μM) was “cell cycle arrest in the S phase” and the G1 (HCT116; 0.5 μM) was 31.82. For the same molecule, the G2/M (HCT116; 0.5 μM) was 45.04, the S (HCT116; 0.5 μM) was 23.14 and the G1 (HCT116; 1 μM) was 28.40. The G2/M (HCT116; 1 μM) was 38.17, the S (HCT116; 1 μM) was 33.43 and the cell cycle arrest (HCT116; colon cancer HCT116, dose-dependent) was “cell cycle arrest in the S and G2/M phase”. It also gave a G1 (HCT-116 p53 −/−; 0.5 μM) of 28.18, a G2/M (HCT-116 p53 −/−; 0.5 μM) of 49.02 and an S (HCT-116 p53 −/−; 0.5 μM) of 22.80. For the same molecule, the G1 (HCT-116 p53 −/−; 1 μM) was 25.59, the G2/M (HCT-116 p53 −/−; 1 μM) was 45.20 and the S (HCT-116 p53 −/−; 1 μM) was 29.21. For the same molecule, the cell cycle arrest (HCT-116 p53 −/−; colon cancer HCT116 p53−/−, dose-dependent) was “cell cycle arrest in the S and G2/M phase”.
